The record followed here is US7238701B2, “Substituted tetrahydrobenzothienopyrimidinamine compounds useful for treating hyper-proliferative disorders” (Bayer Pharmaceuticals Corporation, priority 2003, dated 2007).

For assay [1], the system named is BT474 (human breast carcinoma). In words: In vitro tumor cell proliferation assay (Cell Titer-Glo luminescent cell viability), BT474 cells. To be noted: BT-474, 72 hours drug exposure, 10% Fetal Bovine Serum, ATP luminescence readout, read-out: IC50 (50% inhibition of cell proliferation). It counts as cell-based. The source says:
(§1) In vitro Tumor Cell Proliferation Assay
(§2) The tumor cell proliferation assay used to test the compounds of the present invention involves a readout called Cell Titer-Glow® Luminescent Cell Viability Assay developed by Promega (Cunningham, B A “A Growing Issue: Cell Proliferation Assays, Modern kits ease quantification of cell growth” The Scientist 2001, 15(13), 26, and Crouch, S P et al., “The use of ATP bioluminescence as a measure of cell proliferation and cytotoxicity” Journal of Immunological Methods 1993, 160, 81–88), that measures inhibition of cell proliferation. Generation of a luminescent signal corresponds to the amount of ATP present, which is directly proportional to the number of metabolically active (proliferating) cells.
(§3) A431cells (human epidermoid carcinoma, ATCC # HTB-20) and BT474 (human breast carcinoma, ATCC # CRL-1555) were plated at a density of 2.5×10^3 cells/well in 96 well black-clear bottom tissue culture plates in RPMI media with 10% Fetal Bovine Serum and incubated at 37° C. Twenty-four hours later, test compounds are added at a final concentration range from as high 100 μM to as low 64 pM depend on the activities of the tested compounds in serial dilutions at a final DMSO concentration of 0.1%. Cells were incubated for 72 hours at 37° C. in complete growth media after addition of the test compound. After 72 hours of drug exposure, the plates were equilibrated to room temperature for approximately 30 min. Then, using a Promega Cell Titer Glo Luminescent® assay kit, lysis buffer containing 100 microliters of the enzyme luciferase and its substrate, luciferin mixture, was added to each well. The plates were mixed for 2 min on orbital shaker to ensure cell lysis and incubated for 10 min at room temperature to stabilize luminescence signal. The samples were read on VICTOR 2 using Luminescence protocol, and analyzed with Analyze5 software to generate IC50 values.
On the technique in general: ATP-based viability assays read luminescence as a measure of living cells.

The test system of assay [2] is A431cells (human epidermoid carcinoma). In words: In vitro tumor cell proliferation assay (Cell Titer-Glo luminescent cell viability), A431 cells. It counts as cell-based. To be noted: A-431, 72 h, 72 hours drug exposure, 10% Fetal Bovine Serum, ATP luminescence readout, read-out: IC50 (50% inhibition of cell proliferation).
Description: as §1, §2, §3

`O=C(O)C1CCc2c(sc3ncnc(Nc4cccc(Br)c4)c23)C1` (stereo not drawn) [Example 1, 4-[(3-bromophenyl)amino]-5,6,7,8-tetrahydro[1]benzothieno[2,3-d]pyrimidine-7-carboxylic acid]: the IC50 in assay [1] and in assay [2] was < 50 µM in each case.
Turning to `O=C(O)C1CCc2c(sc3ncnc(Nc4ccc(Br)cc4F)c23)C1` (stereo not drawn) [Example 2, 4-[(4-bromo-2-fluorophenyl)amino]-5,6,7,8-tetrahydro[1]benzothieno[2,3-d]pyrimidine-7-carboxylic acid], the IC50 was < 5 µM in assay [1] and < 50 µM in assay [2].
With `O=C(C1CCc2c(sc3ncnc(Nc4ccc(F)c(Cl)c4)c23)C1)N1CCCCC1` (stereo not drawn) [Example 3, N-(3-chloro-4-fluorophenyl)-7-(1-piperidinylcarbonyl)-5,6,7,8-tetrahydro[1]benzothieno[2,3-d]pyrimidin-4-amine], the IC50 in assay [1] and in assay [2] was < 50 µM each time.
`Fc1ccc(Nc2ncnc3sc4c(c23)CCC(CN2CCCCC2)C4)cc1Cl` (stereo not drawn) [Example 4, N-(3-chloro-4-fluorophenyl)-7-(1-piperidinylmethyl)-5,6,7,8-tetrahydro[1]benzothieno[2,3-d]pyrimidin-4-amine]: the IC50 in assay [1] and in assay [2] was < 5 µM each time.
In the case of `COCCN(C)C(=O)C1CCc2c(sc3ncnc(Nc4ccc(F)c(Cl)c4)c23)C1` (stereo not drawn) [Example 8, 4-[(3-chloro-4-fluorophenyl)amino]-N-(2-methoxyethyl)-N-methyl-5,6,7,8-tetrahydro[1]benzothieno[2,3-d]pyrimidine-7-carboxamide], the IC50 in assay [1] and in assay [2] was < 50 µM throughout.
For the compound `Fc1ccc(Nc2ncnc3sc4c(c23)CCC(CN2CCOCC2)C4)cc1Cl` (stereo not drawn) [Example 12, N-(3-chloro-4-fluorophenyl)-7-(4-morpholinylmethyl)-5,6,7,8-tetrahydro[1]benzothieno[2,3-d]pyrimidin-4-amine], the IC50 in assay [1] and in assay [2] was < 50 µM each time.
Consider `CN1CCN(CC2CCc3c(sc4ncnc(Nc5ccc(F)c(Cl)c5)c34)C2)CC1` (stereo not drawn) [Example 15, N-(3-chloro-4-fluorophenyl)-7-[(4-methyl-1-piperazinyl)methyl]-5,6,7,8-tetrahydro[1]benzothieno[2,3-d]pyrimidin-4-amine], for which the IC50 in assay [1] and in assay [2] was < 5 µM each time.
For `COCCNC(=O)C1CCc2c(sc3ncnc(Nc4ccc(F)c(Cl)c4)c23)C1` (stereo not drawn) [Example 16, 4-[(3-chloro-4-fluorophenyl)amino]-N-(2-methoxyethyl)-5,6,7,8-tetrahydro[1]benzothieno[2,3-d]pyrimidine-7-carboxamide], the IC50 in assay [1] and in assay [2] was < 50 µM in each case.
Consider `O=C(O)C1CCc2c(sc3ncnc(Nc4ccc(F)c(Cl)c4)c23)C1` (stereo not drawn) [Example 20, 4-[(3-chloro-4-fluorophenyl)amino]-5,6,7,8-tetrahydro[1]benzothieno[2,3-d]pyrimidine-7-carboxylic acid], for which the IC50 in assay [1] and in assay [2] was < 50 µM throughout.
On to `CN1CCN(CC2CCc3c(sc4ncnc(Nc5ccc(Br)cc5F)c34)C2)CC1` (stereo not drawn) [Example 22], for which the IC50 in assay [1] and in assay [2] was < 5 µM each time.
`COCCNC(=O)C1CCc2c(sc3ncnc(Nc4ccc(Br)cc4F)c23)C1` (stereo not drawn) [Example 23, 4-[(4-bromo-2-fluorophenyl)amino]-N-(2-methoxyethyl)-5,6,7,8-tetrahydro[1]benzothieno[2,3-d]pyrimidin-7-carboxamide]: the IC50 in assay [1] and in assay [2] was < 50 µM each time.
Take `CCOC(=O)C1CCc2c(sc3ncnc(Nc4ccc(F)c(Cl)c4)c23)C1` (stereo not drawn) [Example 24, ethyl 4-[(3-chloro-4-fluorophenyl)amino]-5,6,7,8-tetrahydro[1]benzothieno[2,3-d]pyrimidine-7-carboxylate]: the IC50 in assay [1] and in assay [2] was < 50 µM in each case.
In the case of `CN1CCN(CC2CCc3c(sc4ncnc(Nc5cccc(Br)c5)c34)C2)CC1` (stereo not drawn) [Example 26, N-(3-bromophenyl)-7-[(4-methyl-1-piperazinyl)methyl]-5,6,7,8-tetrahydro[1]benzothieno[2,3-d]pyrimidin-4-amine], the IC50 in assay [2] is < 5 µM.
As to `COCCN(C)C(=O)C1CCc2c(sc3ncnc(Nc4cccc(Br)c4)c23)C1` (stereo not drawn) [Example 31, 4-[(3-bromophenyl)amino]-N-(2-methoxyethyl)-N-methyl-5,6,7,8-tetrahydro[1]benzothieno[2,3-d]pyrimidine-7-carboxamide], the IC50 in assay [1] and in assay [2] was < 50 µM throughout.
Consider `CCOC(=O)C1CCc2c(sc3ncnc(Nc4ccc(OCc5ccccc5)cc4)c23)C1` (stereo not drawn) [Example 32, Ethyl 4-{[4-(benzyloxy)phenyl]amino}-5,6,7,8-tetrahydro[1]benzothieno[2,3-d]pyrimidine-7-carboxylate], for which the IC50 in assay [1] and in assay [2] was < 50 µM in each case.
Turning to `COCCN(C)CC1CCc2c(sc3ncnc(Nc4cccc(Br)c4)c23)C1` (stereo not drawn) [Example 36, N-(3-bromophenyl)-7-{[(2-methoxyethyl)(methyl)amino]methyl}-5,6,7,8-tetrahydro[1]benzothieno[2,3-d]pyrimidin-4-amine], the IC50 in assay [1] is < 5 µM.
`CCOC(=O)C1CCc2c(sc3ncnc(Nc4ccc(C)c(O)c4)c23)C1` (stereo not drawn) [Example 39, Ethyl 4-[(3-hydroxy-4-methylphenyl)amino]-5,6,7,8-tetrahydro[1]benzothieno[2,3-d]pyrimidine-7-carboxylate]: the IC50 in assay [1] is < 5 µM; in assay [2] it was < 50 µM.
Take `CCOC(=O)C1CCc2c(sc3ncnc(Nc4cccc(O)c4)c23)C1` (stereo not drawn) [Example 40, Ethyl 4-[(3-hydroxyphenyl)amino]-5,6,7,8-tetrahydro[1]benzothieno[2,3-d]pyrimidine-7-carboxylate]: the IC50 in assay [1] and in assay [2] was < 50 µM throughout.
As for `CCOC(=O)C1CCc2c(sc3ncnc(Nc4ccc(Cl)cc4F)c23)C1` (stereo not drawn) [Example 42, Ethyl 4-[(4-chloro-2-fluorophenyl)amino]-5,6,7,8-tetrahydro[1]benzothieno[2,3-d]pyrimidine-7-carboxylate], the IC50 in assay [1] is < 5 µM; in assay [2], < 50 µM.
Consider `CN1CCN(C(=O)C2CCc3c(sc4ncnc(Nc5ccc(OCc6ccccc6)cc5)c34)C2)CC1` (stereo not drawn) [Example 43, N-[4-(benzyloxy)phenyl]-7-[(4-methyl-1-piperazinyl)carbonyl]-5,6,7,8-tetrahydro[1]benzothieno[2,3-d]pyrimidin-4-amine], for which the IC50 in assay [1] is < 5 µM.
For the compound `Brc1cccc(Nc2ncnc3sc4c(c23)CCC(CCN2CCOCC2)C4)c1` (stereo not drawn) [Example 45, N-(3-bromophenyl)-7-[2-(4-morpholinyl)ethyl]-5,6,7,8-tetrahydro[1]benzothieno[2,3-d]pyrimidin-4-amine], the IC50 in assay [1] and in assay [2] was < 5 µM in each case.
As to `Cc1ccc(Nc2ncnc3sc4c(c23)CCC(C(=O)O)C4)cc1O` (stereo not drawn) [Example 46, 4-[(3-hydroxy-4-methylphenyl)amino]-5,6,7,8tetrahydro[1]benzothieno[2,3-d]pyrimidine-7-carboxylic acid], the IC50 in assay [2] was < 50 µM.
Take `N#Cc1ccc(N2CCN(C(=O)C3CCc4c(sc5ncnc(Nc6cccc(Br)c6)c45)C3)CC2)cc1` (stereo not drawn) [Example 48, 4-[4-({4-[(3-bromophenyl)amino]-5,6,7,8-tetrahydro[1]benzothieno[2,3-d]pyrimidin-7-yl}carbonyl)-1-piperazinyl]benzonitrile]: the IC50 in assay [1] was < 5 µM; in assay [2], < 50 µM.
For `COc1ccc(N2CCN(C(=O)C3CCc4c(sc5ncnc(Nc6cccc(Br)c6)c45)C3)CC2)cc1` (stereo not drawn) [Example 49, N-(3-bromophenyl)-7-{[4-(4-methoxyphenyl)-1-piperazinyl]carbonyl}-5,6,7,8-tetrahydro[1]benzothieno[2,3-d]pyrimidin-4-amine], the IC50 in assay [1] and in assay [2] was < 50 µM each time.
With `CS(=O)(=O)CCNC(=O)C1CCc2c(sc3ncnc(Nc4ccc(F)c(Cl)c4)c23)C1` (stereo not drawn) [Example 52, 4-[(3-chloro-4-fluorophenyl)amino]-N-[2-(methylsulfonyl)ethyl]-5,6,7,8-tetrahydro[1]benzothieno[2,3-d]pyrimidine-7-carboxamide], the IC50 in assay [1] and in assay [2] was < 50 µM throughout.
On to `OCCC1CCc2c(sc3ncnc(Nc4ccc(OCc5ccc(F)cc5)c(Cl)c4)c23)C1` (stereo not drawn) [Example 155, 2-[4-({3-chloro-4-[(4-fluorobenzyl)oxy]phenyl}amino)-5,6,7,8-tetrahydro[1]benzothieno[2,3-d]pyrimidin-7-yl]ethanol], for which, in assay [1], the IC50 is < 5 µM.
For `CS(=O)(=O)OCCC1CCc2c(sc3ncnc(Nc4ccc(OCc5ccc(F)cc5)c(Cl)c4)c23)C1` (stereo not drawn) [Example 156, 2-[4-({3-chloro-4-[(4-fluorobenzyl)oxy]phenyl}amino)-5,6,7,8-tetrahydro[1]benzothieno[2,3-d]pyrimidin-7-yl]ethyl methanesulfonate], the IC50 in assay [1] is < 5 µM.
